Laboratory results: article PMC10112504, “Novel 4-thiophenyl-pyrazole, pyridine, and pyrimidine derivatives as potential antitumor candidates targeting both EGFR and VEGFR-2; design, synthesis, biological evaluations, and in silico studies” (RSC Advances, 2023)

Assays:
HepG-2 = experiment: Anti-proliferative activity, SRB colorimetric assay; assay type: cell-based; details: for IC50: Homo sapiens, HepG2, HepG-2 cancer cell line, SRB assay, read-out: Cell lines (IC50 μM) HepG-2; for anti-proliferative activity against HepG-2, in words: authors' grading of Table 1 values, key not given
MCF-7 = experiment: as above; assay type: cell-based; details: for IC50: Homo sapiens, MCF7, MCF-7 cancer cell line, SRB assay, read-out: Cell lines (IC50 μM) MCF-7; for anti-proliferative activity against MCF-7, in words: authors' grading of Table 1 values, key not given
EGFR = EGFR (Homo sapiens, UniProt P00533); experiment: EGFR inhibitory activity, homogeneous luminescence release assay; assay type: biochemical; details: reference erlotinib; read-out: EGFR inhibition IC50
S. aureus = experiment: Antibacterial activity, inhibition zone approach; assay type: cell-based, Staphylococcus aureus; details: for S. aureus Diameter of inhibition zone (mm): Gram-positive bacteria; for S. aureus % Activity index: gentamicin = 100; for antimicrobial activity with S. aureus, in words: authors' grading of Table 2 values, key not given
B. subtilis = experiment: Antibacterial activity, inhibition zone approach; assay type: cell-based, Bacillus subtilis; details: for B. subtilis Diameter of inhibition zone (mm): Gram-positive bacteria; for B. subtilis % Activity index: gentamicin = 100; for antimicrobial activity with B. subtilis, in words: authors' grading of Table 2 values, key not given
E. coli = experiment: Antibacterial activity, inhibition zone approach; assay type: cell-based, Escherichia coli; details: for E. coli Diameter of inhibition zone (mm): Gram-negative bacteria; for E. coli % Activity index: gentamicin = 100; for antimicrobial activity with E. coli, in words: authors' grading of Table 2 values, key not given
P. aeuroginosa = experiment: Antibacterial activity, inhibition zone approach; assay type: cell-based, Pseudomonas aeuroginosa; details: for P. aeuroginosa Diameter of inhibition zone (mm): Gram-negative bacteria; for P. aeuroginosa % Activity index: gentamicin = 100; for antimicrobial activity with P. aeuroginosa, in words: authors' grading of Table 2 values, key not given
C. albicans = experiment: Antifungal activity, inhibition zone approach; assay type: cell-based, Candida albicans; details: for C. albicans Diameter of inhibition zone (mm): Fungi; for C. albicans % Activity index: ketoconazole = 100; for antimicrobial activity with C. albicans, in words: authors' grading of Table 2 values, key not given
A. flavus = experiment: Antifungal activity, inhibition zone approach; assay type: cell-based, Aspergillus flavus; details: for A. flavus Diameter of inhibition zone (mm): Fungi; for A. flavus % Activity index: ketoconazole = 100; for antimicrobial activity with A. flavus, in words: authors' grading of Table 2 values, key not given
VEGFR-2 = VEGFR-2 (Homo sapiens, UniProt P35968); experiment: VEGFR-2 inhibitory activity, homogeneous luminescence release assay; assay type: biochemical; details: reference sorafenib; read-out: VEGFR-2 inhibition IC50
Text: […]. Briefly, these μM inhibitory concentrations recommend greatly the proposed rationale design for the investigated compounds to act as promising dual EGFR/VEGFR-2 inhibitors.

Sequence of EGFR (P00533 25-1210): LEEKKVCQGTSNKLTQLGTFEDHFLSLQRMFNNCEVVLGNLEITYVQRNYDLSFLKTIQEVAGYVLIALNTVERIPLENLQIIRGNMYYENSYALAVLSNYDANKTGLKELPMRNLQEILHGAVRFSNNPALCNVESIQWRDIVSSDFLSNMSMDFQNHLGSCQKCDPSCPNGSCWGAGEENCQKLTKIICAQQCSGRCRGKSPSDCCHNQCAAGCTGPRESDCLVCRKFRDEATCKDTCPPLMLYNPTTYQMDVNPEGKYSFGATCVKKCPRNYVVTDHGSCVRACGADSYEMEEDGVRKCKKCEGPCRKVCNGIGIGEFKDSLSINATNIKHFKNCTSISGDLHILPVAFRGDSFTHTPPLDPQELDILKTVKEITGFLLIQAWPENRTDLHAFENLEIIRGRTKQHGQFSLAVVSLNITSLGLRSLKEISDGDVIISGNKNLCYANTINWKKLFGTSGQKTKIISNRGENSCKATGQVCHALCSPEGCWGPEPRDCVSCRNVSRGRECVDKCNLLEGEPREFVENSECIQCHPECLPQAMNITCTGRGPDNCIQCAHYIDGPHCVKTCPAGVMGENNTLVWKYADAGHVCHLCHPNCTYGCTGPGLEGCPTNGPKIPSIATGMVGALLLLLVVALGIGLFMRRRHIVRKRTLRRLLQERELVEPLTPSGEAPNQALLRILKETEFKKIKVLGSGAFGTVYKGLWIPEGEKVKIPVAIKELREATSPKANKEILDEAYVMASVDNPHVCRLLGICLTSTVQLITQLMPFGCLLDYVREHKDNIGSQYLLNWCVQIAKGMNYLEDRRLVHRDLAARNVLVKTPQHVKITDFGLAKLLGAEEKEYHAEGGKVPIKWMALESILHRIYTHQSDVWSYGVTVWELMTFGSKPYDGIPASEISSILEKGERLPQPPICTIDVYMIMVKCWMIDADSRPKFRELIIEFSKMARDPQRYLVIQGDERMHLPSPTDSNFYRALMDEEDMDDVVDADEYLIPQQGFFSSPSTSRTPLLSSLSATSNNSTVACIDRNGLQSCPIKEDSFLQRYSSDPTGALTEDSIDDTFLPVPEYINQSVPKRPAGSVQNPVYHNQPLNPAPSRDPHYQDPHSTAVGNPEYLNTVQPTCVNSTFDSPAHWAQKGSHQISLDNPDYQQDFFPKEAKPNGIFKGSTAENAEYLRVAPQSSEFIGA
Sequence of VEGFR-2 (P35968 20-1356): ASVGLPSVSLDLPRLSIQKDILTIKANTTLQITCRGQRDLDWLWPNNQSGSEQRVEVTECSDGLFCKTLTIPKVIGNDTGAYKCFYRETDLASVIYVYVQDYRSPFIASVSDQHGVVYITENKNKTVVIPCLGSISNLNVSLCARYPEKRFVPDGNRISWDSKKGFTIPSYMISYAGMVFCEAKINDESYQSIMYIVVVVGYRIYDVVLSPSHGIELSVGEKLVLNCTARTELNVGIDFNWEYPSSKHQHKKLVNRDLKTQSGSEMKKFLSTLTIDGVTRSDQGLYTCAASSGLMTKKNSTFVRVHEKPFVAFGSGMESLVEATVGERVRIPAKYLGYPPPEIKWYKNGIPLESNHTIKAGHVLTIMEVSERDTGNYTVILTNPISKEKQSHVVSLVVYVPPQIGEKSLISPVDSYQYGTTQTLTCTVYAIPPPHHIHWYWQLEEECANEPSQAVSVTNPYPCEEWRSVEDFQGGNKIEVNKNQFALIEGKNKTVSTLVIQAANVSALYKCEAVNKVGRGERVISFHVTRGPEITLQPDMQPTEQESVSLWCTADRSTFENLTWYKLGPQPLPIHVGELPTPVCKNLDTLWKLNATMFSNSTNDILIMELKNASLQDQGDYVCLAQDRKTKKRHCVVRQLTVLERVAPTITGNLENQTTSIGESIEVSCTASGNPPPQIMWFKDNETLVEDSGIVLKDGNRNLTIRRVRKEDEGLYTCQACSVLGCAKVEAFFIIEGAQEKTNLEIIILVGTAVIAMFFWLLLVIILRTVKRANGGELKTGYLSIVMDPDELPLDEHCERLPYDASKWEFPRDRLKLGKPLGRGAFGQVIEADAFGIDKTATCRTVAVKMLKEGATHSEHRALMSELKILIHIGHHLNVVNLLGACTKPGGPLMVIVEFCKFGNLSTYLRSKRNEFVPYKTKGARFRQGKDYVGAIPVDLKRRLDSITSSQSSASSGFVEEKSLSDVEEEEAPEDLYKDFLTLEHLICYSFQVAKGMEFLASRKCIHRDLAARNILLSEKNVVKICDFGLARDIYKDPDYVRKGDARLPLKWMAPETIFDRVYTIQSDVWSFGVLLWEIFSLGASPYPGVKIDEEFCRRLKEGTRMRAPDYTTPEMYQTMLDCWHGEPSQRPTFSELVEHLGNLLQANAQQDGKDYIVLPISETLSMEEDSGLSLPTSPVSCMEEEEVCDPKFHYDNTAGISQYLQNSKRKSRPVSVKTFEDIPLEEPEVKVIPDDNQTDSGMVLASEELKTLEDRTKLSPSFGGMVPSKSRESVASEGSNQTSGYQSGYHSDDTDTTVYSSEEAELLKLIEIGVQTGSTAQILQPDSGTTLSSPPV

SMILES	IC50 (HepG-2)	anti-proliferative activity against HepG-2, in words (HepG-2)	IC50 (MCF-7)	anti-proliferative activity against MCF-7, in words (MCF-7)	S. aureus Diameter of inhibition zone (mm) (S. aureus)	S. aureus % Activity index (S. aureus)	B. subtilis Diameter of inhibition zone (mm) (B. subtilis)	B. subtilis % Activity index (B. subtilis)	E. coli Diameter of inhibition zone (mm) (E. coli)	E. coli % Activity index (E. coli)	P. aeuroginosa Diameter of inhibition zone (mm) (P. aeuroginosa)	P. aeuroginosa % Activity index (P. aeuroginosa)	C. albicans Diameter of inhibition zone (mm) (C. albicans)	C. albicans % Activity index (C. albicans)	A. flavus Diameter of inhibition zone (mm) (A. flavus)	A. flavus % Activity index (A. flavus)	melting point	antimicrobial activity with S. aureus, in words (S. aureus)	antimicrobial activity with B. subtilis, in words (B. subtilis)	antimicrobial activity with E. coli, in words (E. coli)	other results
N#Cc1c(N)c2c(-c3cccs3)cc(-c3ccc(O)cc3)nc2[nH]c1=O [6a, 4-amino-7-(4-hydroxyphenyl)-2-oxo-5-(thiophen-2-yl)-1,2-dihydro-1,8-naphthyridine-3-carbonitrile]	16.2 ± 1.3 µM	strong	19.1 ± 1.6 µM	strong	5 mm	27.8%	9 mm	40.9%	4 mm	19.0%	7 mm	36.8%	12 mm	42.8%	8 mm	30.8%	260 °C	–	–	–	IC50 (EGFR): 0.326 µM
O=C(SC(=S)N1N=C(c2ccc(O)cc2)CC1c1cccs1)c1ccccc1 (stereo not drawn) [18a, Benzoic 3-(4-hydroxyphenyl)-5-(thiophen-2-yl)-4,5-dihydro-1H-pyrazole-1-carbothioic thioanhydride]	12.9 ± 1 µM	strong	6.92 ± 0.5 µM	very strong	13 mm	72.2%	17 mm	77.3%	10 mm	47.6%	15 mm	78.9%	20 mm	71.4%	16 mm	61.5%	240 °C	very strong	very strong	moderate	IC50 (EGFR): 0.436 µM; IC50 (VEGFR-2): 0.344 µM; antimicrobial activity with P. aeuroginosa, in words (P. aeuroginosa): very strong; antimicrobial activity with C. albicans, in words (C. albicans): very strong; antimicrobial activity with A. flavus, in words (A. flavus): very strong
NC(=S)n1nc(-c2ccc(O)cc2)cc1-c1cccs1 [10a, 3-(4-hydroxyphenyl)-5-(thiophen-2-yl)-1H-pyrazole-1-carbothioamide]	39.1 ± 2.4 µM	moderate	23.7 ± 1.7 µM	moderate	9 mm	50.0%	13 mm	59.1%	8 mm	38.1%	12 mm	63.1%	13 mm	46.4%	11 mm	42.3%	195 to 197 °C	moderate	moderate	moderate	antimicrobial activity with P. aeuroginosa, in words (P. aeuroginosa): moderate; antimicrobial activity with C. albicans, in words (C. albicans): moderate; antimicrobial activity with A. flavus, in words (A. flavus): moderate
Oc1ccc(-c2cc(-c3cccs3)nc(/N=C/c3ccccc3O)n2)cc1 [13a, (E)-2-(((4-(4-hydroxyphenyl)-6-(thiophen-2-yl)pyrimidin-2-yl)imino)methyl)phenol]	34.8 ± 2.3 µM	–	42.8 ± 2.6 µM	–	14 mm	77.8%	18 mm	81.8%	13 mm	61.9%	15 mm	78.9%	21 mm	75.0%	16 mm	61.5%	133 to 135 °C	very strong	very strong	very strong	antimicrobial activity with P. aeuroginosa, in words (P. aeuroginosa): very strong; antimicrobial activity with C. albicans, in words (C. albicans): very strong; antimicrobial activity with A. flavus, in words (A. flavus): very strong
O=C(O)CSC(=S)N1N=C(c2ccc(O)cc2)CC1c1cccs1 (stereo not drawn) [19a, 2-((3-(4-Hydroxyphenyl)-5-(thiophen-2-yl)-4,5-dihydro-1H-pyrazole-1-carbonothioyl)thio)acetic acid]	28.2 ± 1.9 µM	moderate	14.7 ± 1.2 µM	strong	10 mm	55.5%	14 mm	63.6%	9 mm	42.8%	12 mm	63.1%	16 mm	57.1%	13 mm	50.0%	223 to 225 °C	moderate	moderate	moderate	antimicrobial activity with P. aeuroginosa, in words (P. aeuroginosa): moderate; antimicrobial activity with C. albicans, in words (C. albicans): moderate; antimicrobial activity with A. flavus, in words (A. flavus): moderate
O=C(CNC(=S)n1nc(-c2ccc(Cl)c(Cl)c2)cc1-c1cccs1)c1ccccc1 [12b, 3-(3,4-dichlorophenyl)-N-(2-oxo-2-phenylethyl)-5-(thiophen-2-yl)-1H-pyrazole-1-carbothioamide]	29.2 ± 2.1 µM	–	36 ± 2.3 µM	–	7 mm	38.9%	12 mm	54.5%	5 mm	23.8%	8 mm	42.1%	15 mm	53.6%	10 mm	38.5%	160 °C	–	–	–	–
N#Cc1c(-c2cccs2)cc(-c2ccc(O)cc2)nc1O [5a, 2-hydroxy-6-(4-hydroxyphenyl)-4-(thiophen-2-yl)nicotinonitrile]	43 ± 2.5 µM	moderate	38.4 ± 2.5 µM	moderate	6 mm	33.3%	10 mm	45.4%	5 mm	23.8%	10 mm	52.6%	14 mm	50.0%	8 mm	30.8%	200 °C	–	–	–	–
CCOC(=O)c1c(-c2cccs2)cc(-c2ccc(O)cc2)[nH]c1=O [4a, Ethyl 6-(4-hydroxyphenyl)-2-oxo-4-(thiophen-2-yl)-1,2-dihydropyridine-3-carboxylate]	44.5 ± 2.6 µM	moderate	41.2 ± 2.4 µM	moderate	6 mm	33.3%	10 mm	45.4%	5 mm	23.8%	8 mm	42.1%	13 mm	46.4%	11 mm	42.3%	125 °C	–	–	–	–
